The record followed here is patent US20110319409A1, “7-AZA-QUINAZOLINE PDE10 INHIBITORS” (priority 2010, published 2011).

One may read the Ki as the equilibrium dissociation constant of an inhibitor or competing ligand from its target. Read a high Ki as lower affinity.

T1 sequence (Q9Y233 267-1055): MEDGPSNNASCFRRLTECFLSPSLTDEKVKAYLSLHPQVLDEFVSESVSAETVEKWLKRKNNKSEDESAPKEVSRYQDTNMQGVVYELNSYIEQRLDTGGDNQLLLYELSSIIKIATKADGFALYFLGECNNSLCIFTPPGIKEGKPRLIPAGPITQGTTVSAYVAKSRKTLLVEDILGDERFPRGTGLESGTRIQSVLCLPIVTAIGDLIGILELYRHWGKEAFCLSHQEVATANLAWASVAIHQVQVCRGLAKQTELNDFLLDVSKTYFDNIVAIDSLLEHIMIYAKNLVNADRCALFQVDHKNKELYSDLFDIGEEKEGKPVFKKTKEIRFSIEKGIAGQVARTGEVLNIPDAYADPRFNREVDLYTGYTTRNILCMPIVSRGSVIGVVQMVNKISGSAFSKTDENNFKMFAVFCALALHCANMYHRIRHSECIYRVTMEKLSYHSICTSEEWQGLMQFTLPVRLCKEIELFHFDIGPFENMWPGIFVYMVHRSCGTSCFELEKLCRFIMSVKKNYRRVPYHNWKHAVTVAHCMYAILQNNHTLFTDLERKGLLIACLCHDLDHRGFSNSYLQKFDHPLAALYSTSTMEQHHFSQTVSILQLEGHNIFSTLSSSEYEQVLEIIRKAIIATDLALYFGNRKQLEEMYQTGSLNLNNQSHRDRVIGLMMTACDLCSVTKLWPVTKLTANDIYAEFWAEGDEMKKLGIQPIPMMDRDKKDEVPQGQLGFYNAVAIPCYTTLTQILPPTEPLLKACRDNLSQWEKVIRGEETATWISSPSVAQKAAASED

This assay addresses T1, human PDE10A2 (Homo sapiens, UniProt Q9Y233).
T1 construct: made in house; host or cells: AD293 cells, transiently transfected; cytoplasmic fraction of the lysate used as enzyme
In words: PDE10 fluorescence polarization (IMAP FP) assay. Type of assay: biochemical. Particulars: human PDE10 enzyme, FAM-labeled cAMP substrate 50 nM. Here is the method: The activity of the compounds in accordance with the present invention as PDE10 inhibitors may be readily determined without undue experimentation using a fluorescence polarization (FP) methodology well known in the art (Huang, W., et al., J. Biomol Screen, 2002, 7: 215).
In a typical experiment the PDE10 inhibitory activity of the compounds of the present invention is determined in accordance with the following experimental method. PDE10A2 is amplified from human fetal brain cDNA (Clontech, Mountain View, Calif.) using a forward primer corresponding to nucleotides 56-77 of human PDE10A2 (Accession No. AF127480, Genbank Identifier 4894716), containing a Kozak consensus sequence, and a reverse primer Corresponding to nucleotides 2406-2413 of human PDE10A2 (Accession No. AF127480, Genbank Identifier 4894716). Amplification with Easy-A polymerase (Stratagene, La Jolla, Calif.) is carried out at 95° C. for 2 minutes followed by thirty three cycles of 95° C. for 40 seconds, 55° C. for 30 seconds, and 72° C. for 2 minutes 48 seconds. Final extension is at 72° C. for 7 minutes. The PCR product is TA cloned into pcDNA3.2-TOPO (Invitrogen, Carlsbad, Calif.) according to standard protocol.
AD293 cells with 70-80% confluency are transiently transfected with human PDE10A2/pcDNA3.2-TOPO using Lipofectamine 2000 according to manufacturer specifications (Invitrogen, Carlsbad, Calif.). Cells are harvested 48 hours post-transfection and lysed by sonication (setting 3, 10×5 sec pulses) in a buffer containing 20 mM HEPES, 1 mM EDTA and protease inhibitor cocktail (Roche). Lysate is collected by centrifugation at 75,000×g for 20 minutes. Supernatant containing the cytoplasmic fraction is used for evaluation of PDE10A2 activity.
The fluorescence polarization assay for cyclic nucleotide phosphodiesterases is performed using an IMAP® FP kit supplied by Molecular Devices, Sunnyvale, Calif. (product #R8139). IMAP® technology has been applied previously to phosphodiesterase assays (Huang, W., et al., J. Biomol Screen, 2002, 7: 215). Assays are performed at room temperature in 384-well microtiter plates with an incubation volume of 20.2 μL. Solutions of test compounds are prepared in DMSO and serially diluted with DMSO to yield 8 μL of each of 10 solutions differing by 3-fold in concentration, at 32 serial dilutions per plate. 100% inhibition is determined using a known PDE10 inhibitor, which can be any compound that is present at 5,000 times its Ki value in the assay described as follows, such as papaverine (see Siuciak, et al. Neuropharmacology (2006) 51:386-396; Becker, et al. Behav Brain Res (2008) 186(2):155-60; Threlfell, et al., J Pharmacol Exp Ther (2009) 328(3):785-795), 2-{4-[pyridin-4-yl-1-(2,2,2-trifluoroethyl)-1H-pyrazol-3-yl]phenoxymethyl}quinoline succinic acid or 2-[4-(1-methyl-4-pyridin-4-yl-1H-pyrazol-3-yl)-phenoxymethyl]quinoline succinic acid (see Schmidt, et al. J Pharmacol Exp Ther (2008) 325:681-690; Threlfell, et al., J Pharmacol Exp Ther (2009) 328(3): 785-795). 0% of inhibition is determined by using DMSO (1% final concentrations).
A Labcyte Echo 555 (Labcyte, Sunnyvale, Calif.) is used to dispense 200 nL from each well of the titration plate to the 384 well assay plate. A solution of enzyme (1/1600 dilution from aliquots; sufficient to produce 20% substrate conversion) and a separate solution of FAM-labeled cAMP PDE from Molecular Devices (product # R7506), at a final concentration of 50 nM are made in the assay buffer (10 mM Tris HCl, pH 7.2, 10 mM MgCl2, 0.05% NaN3 0.01% Tween-20, and 1 mM DTT). The enzyme and the substrate are then added to the assay plates in two consecutive additions of 10 μL, and then shaken to mix. The reaction is allowed to proceed at room temperature for 30 minutes. A binding solution is then made from the kit components, comprised of 80% Solution A, 20% Solution B and binding reagent at a volume of 1/600 the total binding solution. […]
(In general: In fluorescence polarisation assays a small probe gives low polarisation when free and higher when bound to something large.)
Compound `Cc1ncccc1-c1cccc(-c2nc(NCc3ccncc3)c3ccncc3n2)c1` [1-1, 2-[3-(2-Methylpyridin-3-yl)phenyl]-N-(pyridin-4-ylmethyl)pyrido[3,4-d]pyrimidin-4-amine] gave a Ki of 1.4 nM. In other words, the single-digit nanomolar range. The compound `COc1ncccc1-c1cccc(-c2nc(NCCO)c3ccncc3n2)c1` [1-3, 2-({2-[3-(2-Methoxypyridin-3-yl)phenyl]pyrido[3,4-d]pyrimidin-4-yl}amino)ethanol] yielded an inhibition constant (Ki) of 2.7 nM. Next, `COc1ncccc1-c1cccc(-c2nc(NCc3cncnc3)c3ccncc3n2)c1` [1-4, 2-[3-(2-Methoxypyridin-3-yl)phenyl]-N-(pyrimidin-5-ylmethyl)pyrido[3,4-d]pyrimidin-4-amine]: 0.41 nM; `c1cc(-c2nc(NCCN3CCOCC3)c3ccncc3n2)cc(-c2cncc3ccccc23)c1` [1-7]: 0.55 nM. As for `O=S(=O)(c1cccc2c1CN(c1nc(NCc3ccncc3)c3ccncc3n1)CC2)N1CCOCC1` [1-8, 2-[8-(Morpholin-4-ylsulfonyl)-3,4-dihydroisoquinolin-2(1H)-yl]-N-(pyridin-4-ylmethyl)pyrido[3,4-d]pyrimidin-4-amine], affinity was put at a Ki of 0.23 nM.

Regarding `c1cc(-c2nc(OCc3ccncc3)c3ccncc3n2)cc(-c2ncco2)c1` [1-9, 2-[3-(1,3-Oxazol-2-yl)phenyl]-4-(pyridin-4-ylmethoxy)pyrido[3,4-d]pyrimidine], the Ki was 2.7 nM. With `COc1ncccc1-c1cncc(-c2nc(NCc3cncnc3)c3ccncc3n2)c1` [1-11, 2-(2′-methoxy-3,3′-bipyridin-5-yl)-N-(pyrimidin-5-ylmethyl)pyrido[3,4-d]pyrimidin-4-amine] the figure was 0.84 nM. With `CC(C)OC(=O)c1cccc(-c2nc(NCc3ccncc3)c3ccncc3n2)c1` [1-13, isopropyl 3-{4-[(pyridin-4-ylmethyl)amino]pyrido[3,4-d]pyrimidin-2-yl}benzoate] the figure was 1.4 nM; with `COc1ncccc1-c1cccc(-c2nc(NCc3ccncc3)c3ccncc3n2)c1` [A-6, 2-{3-[2-(Methyloxy)pyridin-3-yl]phenyl}-N-(pyridin-4-ylmethyl)pyrido[3, d]pyrimidin-4-amine], 0.4 nM; with `c1ccc2c(c1)CCN(c1nc(NCc3ccncc3)c3ccncc3n1)C2` [B-4, 2-(3,4-Dihydroisoquinolin-2(1H)-yl)-N-(pyridin-4-ylmethyl)pyrido[3,4-d]pyrimidin-4-amine], 5.6 nM. For `C(=C\c1nc(NCc2cncnc2)c2ccncc2n1)/c1ccccc1` [C-2, 2-[(E)-2-Phenylvinyl]-N-(pyrimidin-5-ylmethyl)pyrido[3,4-d]pyrimidin-4-amine], the Ki worked out at 131 nM.
